Assay results taken from patent publication US9801961B2, “2-phenylimidazo[1,2-a]pyrimidines as imaging agents” (Hoffmann-La Roche Inc., priority 2013, dated 2017).

test system: native tau aggregates; assay: TAU radioligand in vitro displacement assay ([3H]T808 autoradiography on human AD brain sections); assay type: binding; conditions: compound 10 nM, radioligand [3H]T808 10 nM, 50 mM Tris pH 7.4, room temperature, 30 min
Experimental: TAU Radioligand-In-Vitro Displacement Assay
This in vitro binding assay assesses the affinity of compounds for native tau aggregates. The compounds are co-incubated with the well-established tau specific radioligand [^3H]T808 and the compound's displacement potency of [^3H]T808 binding is determined by in vitro autoradiography using human Alzheimer's disease (AD) brain sections (FIG. 1).
AD human brains are purchased from Banner Sun Health Research Institute (Sun City, Ariz., USA). Pathological diagnosis of AD is made according to standard NIA-Reagan Institute criteria based on neuropathological data. The radioligand [^3H]T808 was synthesized in-house ([^3H]-2-[4-(2-Fluoro-ethyl)-piperidin-1-yl]-benzo[4,5]imidazo[1,2-a]pyrimidine, radiochemical purity 99.0%). As a reference cold T808 is used (2-[4-(2-Fluoro-ethyl)-piperidin-1-yl]-benzo[4,5]imidazo[1,2-a]pyrimidine). For the autoradiography FujiFilm Imaging Plates (BAS-IP TR 2025) are exposed to the sections and read with a FujiFilm IP reader (BAS-5000).
Ten μm thick human AD brain sections are generated with a cryostat (Leica CM3050) at −17° C. chamber temperature and −15° C. object temperature. Sections are transferred to Histobond+microscope slides (Marienfeld Laboratory Glasware). After drying for 3 hours at room temperature the sections are stored at −20° C. The sections are incubated with the radioligand (10 nM) and the respective cold compound (at various concentrations) in 50 mM Tris buffer, pH 7.4 at room temperature for 30 min. After washing 3×10 min at 4° C. in 50 mM Tris buffer, pH 7.4 and 3 quick dips in H2O dist. at 4° C. the sections are dried at 4° C. for 3 h. The sections are placed in a FujiFilm Cassette (BAS 2025), exposed with an Imaging Plate for five days and afterwards scanned with a resolution of […].
The signal intensity (Dens—PSL/mm2) in the region of interest (ROI) of the autoradiogram is quantified with the software MCID analysis (version 7.0, Imaging Research Inc.). The specific binding (SB) of [^3H]T808 binding in absence or in presence of a compound is calculated by subtracting the non-specific binding signal in the white matter, thus yielding SB[3H]T808 only and SBcompund. The % displacement by the various compounds is calculated as following: % displacement=100−(SBcompund/SB[3H]T808 only)*100.
In each experiment cold T808 is used as a positive internal control. Co-incubation of equimolar amounts of hot and cold T808 is expected to reduce specific binding by approximately 50%.

Row | SMILES | % displacement of [3H]T808 (10 nM) at 10 nM [%]
1 | FCOc1cccc(-c2cn3ccc(N4CCC4)nc3n2)c1 [Example 118, 7-(Azetidin-1-yl)-2-(3-(fluoromethoxy)phenyl)imidazo[1,2-a]pyrimidine] | 23
2 | CNc1ccn2cc(-c3ccccc3)nc2n1 [Example 1, N-Methyl-2-phenylimidazo[1,2-a]pyrimidin-7-amine] | 37
3 | COc1cc(OC)cc(-c2cn3ccc(N4CCC4)nc3n2)c1 [Example 121, 7-(Azetidin-1-yl)-2-(3,5-dimethoxyphenyl)imidazo[1,2-a]pyrimidine] | 5
4 | Cc1cccc(-c2cn3ccc(N4CCCC4)nc3n2)c1 [Example 48, 2-(3-Methylphenyl)-7-pyrrolidin-1-ylimidazo[1,2-a]pyrimidine] | 23
5 | COc1cccc(-c2cn3ccc(N4CCCCC4)nc3n2)c1 [Example 50, 2-(3-Methoxyphenyl)-7-piperidin-1-ylimidazo[1,2-a]pyrimidine] | 14
6 | CNc1ccn2cc(-c3ccc4c(c3)OCO4)nc2n1 [Example 84, 2-(1,3-Benzodioxol-5-yl)-N-methylimidazo[1,2-a]pyrimidin-7-amine] | 28
7 | COc1ccc(-c2cn3ccc(N4CCCCC4)nc3n2)cc1OC [Example 53, 2-(3,4-Dimethoxyphenyl)-7-piperidin-1-ylimidazo[1,2-a]pyrimidine] | 6
8 | CNc1ccn2cc(-c3cccc(C)c3)nc2n1 [Example 62, N-Methyl-2-(3-methylphenyl)imidazo[1,2-a]pyrimidin-7-amine] | 48
9 | FC1CCN(c2ccn3cc(-c4ccc5c(c4)OCO5)nc3n2)CC1 [Example 7, 2-(1,3-Benzodioxol-5-yl)-7-(4-fluoropiperidin-1-yl)imidazo[1,2-a]pyrimidine] | 21
10 | Oc1ccc(-c2cn3ccc(N4CCC4)nc3n2)cc1 [Example 80, 4-[7-(Azetidin-1-yl)imidazo[1,2-a]pyrimidin-2-yl]phenol] | 25
11 | Cc1cccc(-c2cn3ccc(N4CCOCC4)nc3n2)c1 [Example 26, 4-[2-(3-Methylphenyl)imidazo[1,2-a]pyrimidin-7-yl]morpholine] | 13
12 | FC1CCN(c2ccn3cc(-c4cccc(OC(F)(F)F)c4)nc3n2)CC1 [Example 15, 7-(4-Fluoropiperidin-1-yl)-2-[3-(trifluoromethoxy)phenyl]imidazo[1,2-a]pyrimidine] | 14
13 | Cc1cccc(-c2cn3ccc(N4CC(F)C4)nc3n2)c1 [Example 72, 7-(3-Fluoroazetidin-1-yl)-2-(3-methylphenyl)imidazo[1,2-a]pyrimidine] | 18
14 | CNc1ccn2cc(-c3cccc(O)c3)nc2n1 [Example 125, 3-(7-(Methylamino)imidazo[1,2-a]pyrimidin-2-yl)phenol] | 16
15 | FC1CCN(c2ccn3cc(-c4cc5ccccc5o4)nc3n2)CC1 [Example 73, 2-(1-Benzofuran-2-yl)-7-(4-fluoropiperidin-1-yl)imidazo[1,2-a]pyrimidine] | 19
16 | COc1cccc(-c2cn3ccc(N4CCC(F)CC4)nc3n2)c1 [Example 5, 7-(4-Fluoropiperidin-1-yl)-2-(3-methoxyphenyl)imidazo[1,2-a]pyrimidine] | 33
17 | FC1CCN(c2ccn3cc(-c4ccccc4)nc3n2)CC1 [Example 2, 7-(4-Fluoropiperidin-1-yl)-2-phenylimidazo[1,2-a]pyrimidine] | 19
18 | CNc1ccn2cc(-c3cc(OC)cc(OC)c3)nc2n1 [Example 144, 2-(3,5-Dimethoxyphenyl)-N-methylimidazo[1,2-a]pyrimidin-7-amine] | 14
19 | CNc1ccn2cc(-c3ccc4c(c3)CC(=O)N4)nc2n1 [Example 110, 5-(7-(Methylamino)imidazo[1,2-a]pyrimidin-2-yl)indolin-2-one] | 18

Next, values leading:

Row | % displacement of [3H]T808 (10 nM) at 10 nM [%] | SMILES
20 | 19 | CCN(CC)c1ccn2cc(-c3ccc(OC)cc3)nc2n1 [Example 67, N,N-Diethyl-2-(4-methoxyphenyl)imidazo[1,2-a]pyrimidin-7-amine]
21 | 8 | COc1ccc(-c2cn3ccc(NCC(F)(F)F)nc3n2)cc1 [Example 78, 2-(4-Methoxyphenyl)-N-(2,2,2-trifluoroethyl)imidazo[1,2-a]pyrimidin-7-amine]
22 | 28 | Cc1ccc(-c2cn3ccc(N4CCCC4)nc3n2)cc1 [Example 44, 2-(4-Methylphenyl)-7-pyrrolidin-1-ylimidazo[1,2-a]pyrimidine]
23 | 15 | COc1ccc(-c2cn3ccc(N4CC[C@H](F)C4)nc3n2)cc1 [Example 34, 7-[(3 S)-3-Fluoropyrrolidin-1-yl]-2-(4-methoxyphenyl)imidazo[1,2-a]pyrimidine]
24 | 25 | FCCOc1ccc(-c2cn3ccc(N4CCC4)nc3n2)cc1 [Example 111, 7-(Azetidin-1-yl)-2-(4-(2-fluoroethoxy)phenyl)imidazo[1,2-a]pyrimidine]
25 | 40 | COc1ccc(-c2cn3ccc(N4CCC4)nc3n2)cc1 [Example 69, 7-(Azetidin-1-yl)-2-(4-methoxyphenyl)imidazo[1,2-a]pyrimidine]
26 | 49 | Cc1ccc(-c2cn3ccc(N(C)C)nc3n2)cc1 [Example 39, N,N-Dimethyl-2-(4-methylphenyl)imidazo[1,2-a]pyrimidin-7-amine]
27 | 35 | CN(C)c1ccn2cc(-c3ccsc3)nc2n1 [Example 85, N,N-Dimethyl-2-thiophen-3-ylimidazo[1,2-a]pyrimidin-7-amine]
28 | 38 | CNc1ccn2cc(-c3ccc(N(C)C)cc3)nc2n1 [Example 90, 2-[4-(Dimethylamino)phenyl]-N-methylimidazo[1,2-a]pyrimidin-7-amine]
29 | 15 | COc1ccc(-c2cn3ccc(N(C)CCOCCF)nc3n2)cc1 [Example 64, N-[2-(2-Fluoroethoxy)ethyl]-2-(4-methoxyphenyl)-N-methylimidazo[1,2-a]pyrimidin-7-amine]
30 | 15 | Cc1ccc(-c2cn3ccc(N4CCC4)nc3n2)cc1 [Example 94, 7-(Azetidin-1-yl)-2-(4-methylphenyl)imidazo[1,2-a]pyrimidine]
31 | 16 | COc1ccc(-c2cn3ccc(N4CCOCC4)nc3n2)cc1 [Example 25, 4-[2-(4-Methoxyphenyl)imidazo[1,2-a]pyrimidin-7-yl]morpholine]
32 | 15 | CN(CCF)c1ccn2cc(-c3ccc4c(c3)OCO4)nc2n1 [Example 87, 2-(1,3-Benzodioxol-5-yl)-N-(2-fluoroethyl)-N-methylimidazo[1,2-a]pyrimidin-7-amine]

same assay, conditions: compound 1 uM, radioligand [3H]T808 10 nM, 50 mM Tris pH 7.4, room temperature, 30 min

Row | % displacement of [3H]T808 (10 nM) at 1 uM [%] | SMILES
33 | 75 | FC1CCN(c2ccn3cc(-c4ccc5c(c4)OCO5)nc3n2)CC1 [Example 7, 2-(1,3-Benzodioxol-5-yl)-7-(4-fluoropiperidin-1-yl)imidazo[1,2-a]pyrimidine]
34 | 58 | FC1CCN(c2ccn3cc(-c4ccc(Cl)cc4)nc3n2)CC1 [Example 4, 2-(4-Chlorophenyl)-7-(4-fluoropiperidin-1-yl)imidazo[1,2-a]pyrimidine]
35 | 74 | COc1cccc(-c2cn3ccc(N4CCC(F)CC4)nc3n2)c1 [Example 5, 7-(4-Fluoropiperidin-1-yl)-2-(3-methoxyphenyl)imidazo[1,2-a]pyrimidine]
36 | 72 | FC1CCN(c2ccn3cc(-c4ccccc4)nc3n2)CC1 [Example 2, 7-(4-Fluoropiperidin-1-yl)-2-phenylimidazo[1,2-a]pyrimidine]
